Measurements: PMC7413516, “Antidepressant-like activity and safety profile evaluation of 1H-imidazo[2,1-f]purine-2,4(3H,8H)-dione derivatives as 5-HT1A receptor partial agonists” (PLoS ONE, 2020)
Values joined by “and” are separate entries in the source; they are usually repeats but may differ in a detail not shown here. Identical values can stand only once.

Tests used:
[1] = target: T1, muscarinic M3 receptor (M3R) (Cavia porcellus, UniProt H0W1Z3); assay: Smooth muscle relaxant assay: carbachol-induced contraction of isolated guinea pig ileum; details: isolated guinea pig small intestine, carbachol 100 μM
T1 construct: from tissue; host or cells: isolated guinea pig ileum
T1 sequence (H0W1Z3 1-590): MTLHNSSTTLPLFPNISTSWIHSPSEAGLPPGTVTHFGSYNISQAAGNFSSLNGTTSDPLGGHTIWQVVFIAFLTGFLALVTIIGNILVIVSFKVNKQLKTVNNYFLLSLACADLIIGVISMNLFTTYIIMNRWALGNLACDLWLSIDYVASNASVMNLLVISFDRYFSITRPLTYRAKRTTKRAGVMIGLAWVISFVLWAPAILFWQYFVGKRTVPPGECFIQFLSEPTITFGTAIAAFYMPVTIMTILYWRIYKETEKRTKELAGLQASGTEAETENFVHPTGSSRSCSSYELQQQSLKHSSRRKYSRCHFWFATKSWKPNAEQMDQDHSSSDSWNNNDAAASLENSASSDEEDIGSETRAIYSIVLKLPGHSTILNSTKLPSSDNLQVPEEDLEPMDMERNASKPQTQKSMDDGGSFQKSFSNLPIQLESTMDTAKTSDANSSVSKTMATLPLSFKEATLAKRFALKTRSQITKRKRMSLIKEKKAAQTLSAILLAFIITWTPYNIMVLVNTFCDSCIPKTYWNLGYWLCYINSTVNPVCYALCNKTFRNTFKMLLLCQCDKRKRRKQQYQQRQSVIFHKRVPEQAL
Description: (§1) The experiment was carried out according to the method described previously. Male guinea pigs were sacrificed by cervical dislocation. The ileum was rapidly removed, rinsed, and cut into segments of 1.5–2.0 cm length. The tissues were mounted on a jacketed 20 mL organ bath (Tissue Organ Bath System; 750 TOBS, DMT, Denmark) filled with Krebs’s solution (NaCl 120 mM, KCl 5.6 mM, MgCl2 2.2 mM, CaCl2 2.4 mM, NaHCO3 19 mM, glucose 10 mM). The bath was aerated with 95 % O2/5 % CO2 and heated at 37°C. During the 60-min incubation period, the organ was rinsed 4 times with fresh Krebs’s buffer, and the tissues were also pre-stimulated by 60 mM KCl solution. The submaximal contraction induced by histamine (Sigma Aldrich) (2 μM) and carbachol (Sigma Aldrich) (100 μM) was evaluated in the presence and absence of the tested compounds. Amplitudes of contraction values were measured in 4 independent experiments.

[2] = Body weight measurement in the 17-day experiment; format: in vivo, Swiss albino mice; details: for body weight Mean / body weight: mouse, 1.25 mg/kg
Description: (§2) The Swiss albino mice were used in the experiment. AZ-853 and AZ-861 were injected once daily for 16 consecutive days. On the 1st and 15th day the administration of the compounds, 18-h spontaneous animal activity was registered (see below). FST, as described earlier, was performed on the 14th day just before the next treatment. To ensure that the effects observed in FST are not the result of increased motility of animals, on the 13th day, just before the next administration, the locomotor activity was measured as described earlier, from 2 to 6 min after test start, i.e. in the period identical to the duration of FST. Blood and organ collection was performed on the 17th day at 24 h after the last dose and fasting.
The body weight was measured daily immediately prior to administration of the drugs. On the 17th day, the blood was collected from the Swiss albino mice sacrificed by decapitation 20 min after i.p. administration of heparin (2500 units/mouse) and then centrifuged at 600 × g (15 min, 4°C) to separate plasma. The liver, heart, and kidney were also collected and weighed.

[3] = Plasma glucose, triglyceride and cholesterol levels after repeated administration; format: in vivo, Swiss albino mice; details: mice, AZ-853 0.625, AZ-861 1.25 mg/kg b.w./day
Description: as §2
Blood samples were collected from the Swiss albino mice 24 h after the last administration of the tested compounds or vehicle. To determine glucose, cholesterol and triglyceride levels in the plasma, standard enzymatic spectrophotometric tests (Biomaxima S.A. Lublin, Poland) were used. In the presence of appropriate enzyme, the substrate was converted to a colored compound. Absorbance was measured at a wavelength of 500 nm. To determine alanine aminotransferase (ALAT) or γ-glutamyl transpeptidase (γ-GTP) activities in the plasma, the standard enzymatic spectrophotometric test (Biomaxima S.A.) was used. Absorbance was measured at 340 nm (ALAT) or 405 nm (γ-GTP).

mice = assay: Forced swim test (FST) in mice; format: in vivo, Swiss albino mice
Excerpt: The investigated compounds AZ-853 (8-(4-(4-(2-fluorophenyl)piperazin-1-yl)butyl)-1,3-dimethyl-1H-imidazo[2,1-f]purine-2,4(3H,8H)-dione and AZ-861 (1,3-dimethyl-8-(4-(4-(3-(trifluoromethyl)phenyl)piperazin-1-yl)butyl)-1H-imidazo[2,1-f]purine-2,4(3H,8H)-dione) were synthesised in the Department of Medicinal Chemistry, Faculty of Pharmacy, Jagiellonian University, and their synthesis was described earlier. AZ-853 and AZ-861 were suspended in 1% aqueous solution of Tween 80, and WAY-100635 (Sigma, Germany) was dissolved in 0.9% saline. In acute experiments, the selected compounds AZ-853 (0.156–2.5 mg/kg) and AZ-861 (0.625–2.5 mg/kg) were injected i.p. once 60 min before tests, whereas WAY-100635 (0.3 mg/kg) was administered subcutaneously (s.c.) 45 min before the test. […] In chronic experiments, AZ-853 and AZ-861 were administered i.p. once a day (between 9:00 AM and 10:00 AM) for 16 consecutive days at the minimum active doses selected from FST experiment, i.e. 0.625 and 1.25 mg/kg, respectively. All compounds were administered to mice at a volume of 10 ml/kg and to rats at a volume of 2 ml/kg. The control groups received 1% aqueous solution of Tween 80.
The experiment was carried out according to the method of Porsolt et al.. Swiss albino mice were individually placed in a glass cylinder (25 cm high; 10 cm in diameter) containing 10 cm of water maintained at 23–25°C, and were left there for 6 min. The total duration of immobility was recorded during the last 4 min of a 6-min. A mouse was regarded as immobile when it remained floating on the water, making only small movements to keep its head above it.
as §2

[4] = target: T2, histaminic H1 receptor (H1R) (Cavia porcellus, UniProt P31389); assay: Smooth muscle relaxant assay: histamine-induced contraction of isolated guinea pig ileum; details: isolated guinea pig small intestine, histamine 2 μM
T2 construct: from tissue; host or cells: isolated guinea pig ileum
T2 sequence (P31389 whole entry): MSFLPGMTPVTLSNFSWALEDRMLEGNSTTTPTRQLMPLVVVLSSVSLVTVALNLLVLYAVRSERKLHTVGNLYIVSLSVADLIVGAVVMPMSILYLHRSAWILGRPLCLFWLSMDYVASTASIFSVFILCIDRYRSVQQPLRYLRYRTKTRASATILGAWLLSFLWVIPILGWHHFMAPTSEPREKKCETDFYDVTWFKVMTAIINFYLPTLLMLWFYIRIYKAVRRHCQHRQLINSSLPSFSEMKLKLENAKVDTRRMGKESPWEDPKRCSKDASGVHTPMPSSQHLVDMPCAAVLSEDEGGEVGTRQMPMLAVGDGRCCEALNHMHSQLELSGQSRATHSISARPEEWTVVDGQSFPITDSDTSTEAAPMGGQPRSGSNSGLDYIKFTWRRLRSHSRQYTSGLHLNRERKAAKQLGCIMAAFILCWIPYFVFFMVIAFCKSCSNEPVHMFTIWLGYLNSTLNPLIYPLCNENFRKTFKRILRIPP
Description: as §1

inhibition at 1 µM [1]: 0.17% | plasma level of total cholesterol vs. control [3]: increased significantly | plasma level of triglycerides vs. control [3]: increased significantly | inhibition at 1 µM [4]: 99.8%
SMILES: Cn1c(=O)c2c(nc3n(CCCCN4CCN(c5cccc(C(F)(F)F)c5)CC4)ccn23)n(C)c1=O [AZ-861, 1,3-dimethyl-8-(4-(4-(3-(trifluoromethyl)phenyl)piperazin-1-yl)butyl)-1H-imidazo[2,1-f]purine-2,4(3H,8H)-dione]
effect on body weight ([2]; mice, repeated i.p. once daily, AZ-853 0.625 mg/kg (from 10th day), AZ-861 1.25 mg/kg (2nd, 3rd, 4th day)): slight and significant decrease in body weight | body weight Mean ([2]; day 1, group mean): 23.19 g | body weight ([2]; day 1, individual mouse): 20.6 g and 21.8 g and 22.1 g and 24.2 g and 24.0 g and 23.4 g and 23.1 g and 24.9 g and 26.3 g and 21.5 g | body weight Mean ([2]; day 2, group mean): 23.05 g | body weight ([2]; day 2, individual mouse): 20.7 g and 22.8 g and 22.6 g and 24.2 g and 23.5 g (2×) and 23.1 g and 23.6 g and 24.9 g and 21.6 g | body weight Mean ([2]; day 3, group mean): 23.20 g | body weight ([2]; day 3, individual mouse): 21.0 g (2×) and 22.0 g and 23.0 g and 24.0 g (5×) and 25.0 g | body weight Mean ([2]; day 4, group mean): 23.30 g | body weight ([2]; day 4, individual mouse): 22.0 g (2×) and 23.0 g (3×) and 21.0 g and 24.0 g (2×) and 25.0 g and 26.0 g | body weight Mean ([2]; day 5, group mean): 23.70 g | body weight ([2]; day 5, individual mouse): 21.6 g and 22.5 g and 22.7 g and 24.5 g and 24.0 g and 23.5 g and 24.9 g and 26.3 g and 25.9 g and 21.1 g | body weight Mean ([2]; day 6, group mean): 23.76 g | body weight ([2]; day 6, individual mouse): 21.6 g (2×) and 22.1 g and 22.6 g and 25.1 g and 24.3 g and 23.0 g and 25.3 g and 25.6 g and 26.4 g | body weight Mean ([2]; day 7, group mean): 23.90 g | body weight ([2]; day 7, individual mouse): 22.0 g (3×) and 23.0 g and 25.0 g (2×) and 24.0 g (2×) and 26.0 g (2×) | body weight Mean ([2]; day 8, group mean): 24.10 g | body weight ([2]; day 8, individual mouse): 23.0 g (3×) and 25.0 g (2×) and 24.0 g (2×) and 26.0 g (2×) and 22.0 g | body weight Mean ([2]; day 9, group mean): 24.40 g | body weight ([2]; day 9, individual mouse): 23.0 g (4×) and 26.0 g (3×) and 25.0 g (2×) and 24.0 g | body weight Mean ([2]; day 10, group mean): 24.31 g | body weight ([2]; day 10, individual mouse): 22.5 g and 23.1 g (2×) and 25.2 g and 24.7 g and 24.0 g and 25.0 g and 26.6 g and 26.8 g and 22.1 g | body weight Mean ([2]; day 11, group mean): 24.47 g | body weight Mean ([2]; day 12, group mean): 24.59 g | body weight Mean ([2]; day 13, group mean): 24.59 g | body weight Mean ([2]; day 14, group mean): 24.73 g | body weight Mean ([2]; day 15, group mean): 25.31 g | plasma glucose level vs. control [3]: did not influence the plasma glucose level | reduction of immobility time in FST (mice; acute, 1.25 mg/kg i.p., 60 min before test): approximately 33% | effect of WAY-100635 on the antidepressant-like action of the compound in FST (mice; compound 1.25 mg/kg i.p. + WAY-100635 0.3 mg/kg s.c.): attenuation of the anti-immobility effect | effect on immobility time in FST after repeated administration (mice; i.p. once daily for 13 consecutive days, AZ-853 0.625 mg/kg, AZ-861 1.25 mg/kg): decreased the immobility time
